The test concerns 233499-124-R-J3-PDC complex spheroid viability. As to the kind of experiment: Anticancer human tumor 233499-124-R-J3-PDC patient-derived colon adenocarcinoma cell line growth inhibition [CLK]. Conditions: for viability, T/C: stronger effect = lower value. The text has this:
A high-throughput screen of multi-cell type tumor spheroids was designed to identify active combinations of […] and targeted small molecules. Complex spheroids include a stromal component modeled by human endothelial cells (HUVEC) and fibroblasts modeled by human mesenchymal stem cells (MSCs). The concentration ranges selected for each drug and investigational agent were based upon clinically achievable concentrations if the clinical Cmax of the agent was known.
Compounds. The drugs and investigational agents: cirtuvivint (SM08502; NSC835563), CC-671 (NSC850746), vemurafenib (NSC761431), tapotoclax (NSC804041), sotorasib (NSC818433), adagrasib (NSC831453), MRTX-1133 (NSC836407), BAY2416964 (NSC825713), copanlisib (NSC816437), inavolisib (NSC800729), abemaciclib (NSC768073), osimertinib (NSC779217), entinostat (NSC756642), eltanexor (KPT-8602, NSC794443), venetoclax (NSC766270), ceralasertib (NSC777638), bortezomib (NSC756655), olaparib (NSC753686), talazoparib (NSC767125), alisertib (NSC759677), peposertib (NSC802822), gemcitabine (NSC613327), 5-fluorouracil (NSC19893), SN-38 (NSC673596), oxaliplatin (NSC266046), paclitaxel (NSC125973), and doxorubicin (NSC123127), were obtained from the National Cancer Institute (NCI) Developmental Therapeutics Program Chemical Repository. The FDA-approved anticancer drug set is available from the Developmental Therapeutics Program at https://dtp.cancer.gov/organization/dscb/obtaining/available plates.htm. […] The stock solutions were prepared in dimethyl sulfoxide (DMSO, Sigma-Aldrich, St. Louis, MO, cat. D2650), except for the platinum complexes which were prepared in saline (Quality Biological, Gaithersburg, MD, cat. 114-055-101), at 800-fold the tested concentration and stored at -70 degrees C prior to their use. All drugs and investigational agents were tested over a range starting from a high concentration at or near the clinical Cmax and decreasing in half-log increments. If the clinical Cmax for an agent had not been determined, the highest concentration tested was 10 microM.
Cell Culture. All cells were maintained in an incubator at 37 degrees C and 5% CO2 with 95% humidity. The PDC lines were cultured according to standard operating procedures established by the NCI PDMR. Briefly, all PDCs were thawed and cultured in Matrigel-coated flasks prepared with a working solution of 1X Ham's F-12 nutrient mix, without supplementation (Invitrogen, Waltham, MA, cat. 11765054), 100 U/mL penicillin-streptomycin (Invitrogen, cat. 15140122), and 2.5% Matrigel (Corning Inc., Corning, NY, cat. 354248) for the first three passages. The 947758-054-R-J2-PDC line was cultured in 6B/Colon 1A media, which includes advanced DMEM/F-12 (Thermo Fisher Scientific, cat. 12634028), 10 mM HEPES (Thermo Fisher Scientific, cat. 15630080), 1X GlutaMAX supplement (Thermo Fisher Scientific, cat. 35050061), 0.1 mg/mL primocin (InvivoGen, cat. ant-pm-2), 10% defined fetal bovine serum, heat inactivated (HyClone Laboratories Inc., cat. SH30070.03HI), 1.25 mM N-Acetyl-L-cysteine (Sigma-Aldrich, cat. A9165), 10 mM nicotinamide (Sigma-Aldrich, cat. N0636), 1X B-27 supplement (Thermo Fisher Scientific, cat. 17504044), 1X N-2 supplement (Thermo Fisher Scientific, cat. 17502048), and 10 microM Y-27632 dihydrochloride (Tocris Bioscience, cat. 1254). The 876862-298-R-J1-PDC was cultured in 6E media, which includes all 6B/Colon 1A media components plus 50% L-WRN conditioned media (ATCC, cat. CRL-3276), 50 ng/mL recombinant human EGF recombinant protein (hEGF; Thermo Fisher Scientific, cat. PHG0311), 10 ng/mL recombinant human fibroblast growth factor 10 (hGFG-10; PeproTech, cat. 100-26), 1 ng/mL recombinant human fibroblast growth factor 2 (hFGF-2; PeproTech, cat. 100-18B), and 1 µM prostaglandin E2 (PGE2; Tocris, cat. 2296). The 227483-062-R1-J1-PDC line was cultured in Panc media, containing all 6E components except hFGF-2, with the addition of 500 nM SB-431542 (Selleckchem, cat. S1067) and 10 nM gastrin (Tocris, cat. 3006). […]

Each structure is given as a SMILES string. Where “and” joins values, the source holds several entries; their conditions need not be identical. Identical values can stand only once.
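Also: spheroids exposed to the drug combinations for seven days.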
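For viability, T/C in this document: percent viability relative to DMSO vehicle control wells taken as 100%.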

With `CC(=O)O[C@H]1C(=O)[C@@]2(C)[C@H]([C@H](OC(=O)c3ccccc3)[C@]3(O)C[C@H](OC(=O)[C@H](O)[C@@H](NC(=O)c4ccccc4)c4ccccc4)C(C)=C1C3(C)C)[C@]1(OC(C)=O)CO[C@@H]1C[C@@H]2O`, the viability, T/C – broadly, the ratio of treated to control – was 63.2% and 74.1% (compound 0.0316 µM); 38.9% and 31.5% (compound 0.1 µM); 19.9% and 8.71% (compound 0.316 µM); 17.4% and 11% (compound 1 µM); 20.4% and 9.09% (compound 3.16 µM); 24.4% and 16.4% (compound 10 µM). Further, where the note is “curve of compound”, the half-inhibitory concentration (IC50) (as a rule, the concentration that gives 50% inhibition) was 59.1 nM and 60.7 nM.
Consider `CC1COCCN1c1cc(C2(S(C)(=N)=O)CC2)nc(-c2ccnc3[nH]ccc23)n1` (stereo not given), for which the viability, T/C is, setting by setting: (compound 0.0316 µM) 101% and 95.8%; (compound 0.1 µM) 101% and 91.5%; (compound 0.316 µM) 98.3% and 92.1%; (compound 1 µM) 101% and 74.8%; (compound 3.16 µM) 99.7% and 89.2%; (compound 10 µM) 81.4% and 53.9%. In addition, for the setting “curve of compound”, the IC50 was > 10000 nM.
Take `CN1CCN(c2cc(C(=O)Nc3cc4cc(-c5cnn(C)c5)ccc4cn3)ccn2)CC1`: the viability, T/C (compound 1 µM) was 1.16% [middle of 11 runs]; the viability, T/C (compound 3.16 µM) was 0.72% [middle of 10 runs]; the viability, T/C (compound 10 µM) is 0.46% [middle of 10 runs]. Moreover, the half-inhibitory concentration (IC50) (compound alone, run of 07/31/2023) was 529 nM [middle of 10 runs].
`COc1ccc([C@@H](O)c2cc(-c3ncnc4cc(N5CCOCC5)ccc34)c(F)cc2Cl)nn1`: the viability, T/C is 103% and 84.3% (compound 0.0316 µM); 106% and 94.1% (compound 0.1 µM); 109% and 95.4% (compound 0.316 µM); 99.8% and 91.2% (compound 1 µM); 96.1% and 92.5% (compound 3.16 µM); 83.5% and 79.1% (compound 10 µM). Besides, the IC50 (curve of compound) is > 10000 nM.
Take `COc1cccc2c1C(=O)c1c(O)c3c(c(O)c1C2=O)CC(O)(C(=O)CO)CC3OC1CC(N)C(O)C(C)O1` (stereo not given): the viability, T/C (compound 0.0316 µM) was 92.5% and 101%; the viability, T/C (compound 0.1 µM) was 99% and 94.5%; the viability, T/C (compound 0.316 µM) is 81.5% and 67.5%; the viability, T/C (compound 1 µM) was 72.2% and 48.1%; the viability, T/C (compound 3.16 µM) was 45.6% and 21.7%; the viability, T/C (compound 10 µM) is 17.3% and 17.5%. For the setting “curve of compound”, the 50% inhibitory concentration (IC50) is 2610 nM and 781 nM.
Consider `Nc1ccn(C2OC(CO)C(O)C2(F)F)c(=O)n1` (stereo not given), for which the viability, T/C runs as follows: (compound 0.0316 µM) 100% and 98%; (compound 0.1 µM) 80.3% and 47.1%; (compound 0.316 µM) 39.9% and 22.4%; (compound 1 µM) 33.8% and 20.9%; (compound 3.16 µM) 38.9% and 21.9%; (compound 10 µM) 41.3% and 15.8%. Also, the IC50 (curve of compound) is 237 nM and 93.6 nM.
In the case of `O=C(c1cc(Cc2n[nH]c(=O)c3ccccc23)ccc1F)N1CCN(C(=O)C2CC2)CC1`, the viability, T/C was 89.8% and 102% (compound 0.0316 µM); 91.5% and 89.6% (compound 0.1 µM); 104% (compound 0.316 µM); 105% and 92.8% (compound 1 µM); 107% (compound 3.16 µM); 86% and 115% (compound 10 µM). Also, the concentration for half-maximal inhibition (IC50) (curve of compound) is > 10000 nM.
For `O=c1[nH]cc(F)c(=O)[nH]1`, the viability, T/C runs as follows: (compound 0.0316 µM) 94.9% and 97.3%; (compound 0.1 µM) 106% and 96%; (compound 0.316 µM) 55.2% and 69.3%; (compound 1 µM) 50.6% and 37.5%; (compound 3.16 µM) 31.1% and 20.9%; (compound 10 µM) 30.8% and 23.1%. The IC50 (curve of compound) was 444 nM and 625 nM.
As to `CCCS(=O)(=O)Nc1ccc(F)c(C(=O)c2c[nH]c3ncc(-c4ccc(Cl)cc4)cc23)c1F` + CN1CCN(c2cc(C(=O)Nc3cc4cc(-c5cnn(C)c5)ccc4cn3)ccn2)CC1, the half-inhibitory concentration (IC50) was > 10000 nM (curve of first compound, second compound 0.0316 µM); > 10000 nM (curve of first compound, second compound 0.1 µM); 8040 nM (curve of first compound, second compound 0.316 µM); < 31.6 nM (curve of first compound, second compound 1 µM); < 31.6 nM (curve of first compound, second compound 3.16 µM); < 31.6 nM (curve of first compound, second compound 10 µM). Also, the viability, T/C is 103% (second compound 0.0316 µM, first compound 0.0316 µM); 98.2% (second compound 0.0316 µM, first compound 0.1 µM); 101% (second compound 0.0316 µM, first compound 0.316 µM); 99.8% (second compound 0.0316 µM, first compound 1 µM); 97.2% (second compound 0.0316 µM, first compound 3.16 µM); 92.4% (second compound 0.0316 µM, first compound 10 µM). For the same molecule, the viability, T/C reads like this: (second compound 0.1 µM, first compound 0.0316 µM) 98.5%; (second compound 0.1 µM, first compound 0.1 µM) 103%; (second compound 0.1 µM, first compound 0.316 µM) 103%; (second compound 0.1 µM, first compound 1 µM) 106%; (second compound 0.1 µM, first compound 3.16 µM) 109%; (second compound 0.1 µM, first compound 10 µM) 92.2%. The viability, T/C is 96.7% (second compound 0.316 µM, first compound 0.0316 µM); 96.9% (second compound 0.316 µM, first compound 0.1 µM); 91.8% (second compound 0.316 µM, first compound 0.316 µM); 89.3% (second compound 0.316 µM, first compound 1 µM); 99.9% (second compound 0.316 µM, first compound 3.16 µM); 39.5% (second compound 0.316 µM, first compound 10 µM). For the same molecule, the viability, T/C by setting is: (second compound 1 µM, first compound 0.0316 µM) 1.29%; (second compound 1 µM, first compound 0.1 µM) 4.3%; (second compound 1 µM, first compound 0.316 µM) 5.03%; (second compound 1 µM, first compound 1 µM) 0.45%; (second compound 1 µM, first compound 3.16 µM) 0.8%; (second compound 1 µM, first compound 10 µM) 1.4%. For the same molecule, the viability, T/C was 0.42% (second compound 3.16 µM, first compound 0.0316 µM); 0.62% (second compound 3.16 µM, first compound 0.1 µM); 1.12% (second compound 3.16 µM, first compound 0.316 µM); 0.53% (second compound 3.16 µM, first compound 1 µM); 0.63% (second compound 3.16 µM, first compound 3.16 µM); 0.92% (second compound 3.16 µM, first compound 10 µM). Besides, the viability, T/C reads like this: (second compound 10 µM, first compound 0.0316 µM) 0.24%; (second compound 10 µM, first compound 0.1 µM) 0.32%; (second compound 10 µM, first compound 0.316 µM) 1.24%; (second compound 10 µM, first compound 1 µM) 0.33%; (second compound 10 µM, first compound 3.16 µM) 0.36%; (second compound 10 µM, first compound 10 µM) 0.85%.

The values are drawn from PubChem BioAssay AID2060613 (Molecular Pharmacology Branch, DTP, NCI, 2025).
